Measurements reported in US20160209428A1, “DIAGNOSTIC AND PREDICTIVE METABOLITE PATTERNS FOR DISORDERS AFFECTING THE BRAIN AND NERVOUS SYSTEM” (THE REGENTS OF THE UNIVERSITY OF CALIFORNIA, priority 2013, published 2016).

Tested on: Fragile X (Fmr1) knockout mouse
Assay: Plasma metabolomics after weekly suramin or saline, Fragile X model
Type: in vivo
Conditions: for Suramin Treatment Effect (KO-Sur/KO-Sal): Fragile X KO
Method: Samples were analyzed on an AB SCIEX QTRAP 5500 triple quadrupole mass spectrometer equipped with a Turbo V electrospray ionization (ESI) source, Shimadzu LC-20A UHPLC system, and a PAL CTC autosampler (AB ACIEX, Framingham, Mass., USA). […] Plasma was separated by centrifugation at 600 g×5 minutes at 20° C. within one hour of collection. Fresh lithium-heparin plasma was transferred to labeled tubes for storage at −80° C. for analysis. Typically 45 μl of plasma was thawed on ice and transferred to a 1.7 ml Eppendorf tube. Two and one-half (2.5) μl of a cocktail containing 35 commercial stable isotope internal standards, and 2.5 μl of 310 stable isotope internal standards that were custom-synthesized in E. coli and S. cerevisiae by metabolic labeling with ^13C-glucose and ^13C-bicarbonate, were added, mixed, and incubated for 10 min at room temperature to permit small molecules and vitamins in the internal standards to associate with plasma binding proteins. Macromolecules (protein, DNA, RNA, etc.) were precipitated by extraction with 4 volumes (200 μl) of cold (−20° C.), acetonitrile:methanol (50:50) (LCMS grade, Cat#LC015-2.5 and GC230-4, Burdick & Jackson, Honeywell), vortexed vigorously, and incubated on crushed ice for 10 min, then removed by centrifugation at 16,000 g×10 min at 4° C. The supernatants containing the extracted metabolites and internal standards in the resulting 40:40:20 solvent mix of acetonitrile:methanol:water were transferred to labeled cryotubes and stored at −80° C. for LC-MS/MS (liquid chromatography-tandem mass spectrometry) analysis.
LC-MS/MS analysis was performed by multiple reaction monitoring (MRM) under Analyst v1.6.1 (AB SCIEX, Framingham, Mass., USA) software control in both negative and positive mode with rapid polarity switching (50 ms). Nitrogen was used for curtain gas (set to 30), collision gas (set to high), ion source gas 1 and 2 (set to 35). The source temperature was 500° C. Spray voltage was set to −4500 V in negative mode and 5500 V in positive mode. The values for Q1 and Q3 mass-to-charge ratios (m/z), declustering potential (DP), entrance potential (EP), collision energy (CE), and collision cell exit potential (CXP) were determined and optimized for each MRM for each metabolite. Ten microliters of extract was injected by PAL CTC autosampler into a 250 mm×2 mm, 5 μm Luna NH2 aminopropyl HPLC column (Phenomenex, Torrance, Calif., USA) held at 25° C. for chromatographic separation. […] The flow rate was 300 μl/min. All the samples were kept at 4° C. during analysis. The chromatographic peaks were identified using MultiQuant (v3.0, AB SCIEX), confirmed by manual inspection, and the peak areas integrated. The median of the peak area of stable isotope internal standards was calculated and used for the normalization of metabolites concentration across the samples and batches. Prior to multivariate and univariate analysis, the data were log-transformed.
A rendering of mammalian intermediary metabolism was constructed in Cytoscape v 3.1.1 (see, e.g., [http://]www.cytoscape.org/). […] Nodes in the Cytoscape network represent metabolites within the pathways and have been colored according to the Z-score. The Z-score was computed as the arithmetic difference between the mean concentration of each metabolite in the KO-Sur treatment group and the KO-Sal control group, divided by the standard deviation in the controls. Node colors were arranged on a red-green color scale with green representing −2.00 Z-score, red representing +2.00 Z-score, and with a zero (0) Z-score represented as white.
Group means and standard error of the means (SEM) are reported. Behavioral data were analyzed by two-way ANOVA and one-way ANOVAs (GraphPad Prism 5.0d, GraphPad Software Inc., La Jolla, Calif., USA, or Stata/SE v12.1, StataCorp, College Station, Tex., USA). Pair-wise post hoc testing was performed by the method of Tukey or Newman-Keuls. Significance was set at p<0.05.

For `Cc1ccc(C(=O)Nc2ccc(S(=O)(=O)O)c3cc(S(=O)(=O)O)cc(S(=O)(=O)O)c23)cc1NC(=O)c1cccc(NC(=O)Nc2cccc(C(=O)Nc3cc(C(=O)Nc4ccc(S(=O)(=O)O)c5cc(S(=O)(=O)O)cc(S(=O)(=O)O)c45)ccc3C)c2)c1` [Suramin, suramin], the “Suramin Treatment Effect (KO-Sur/KO-Sal)” value (Bile Salt Metabolism, plasma) was “Increased”, the “Suramin Treatment Effect (KO-Sur/KO-Sal)” value (Branch Chain Amino Acid Metabolism, plasma) was “Increased” and the “Suramin Treatment Effect (KO-Sur/KO-Sal)” value (Cardiolipin Metabolism, plasma) was “Decreased”. For the same molecule, the “Suramin Treatment Effect (KO-Sur/KO-Sal)” value (Cholesterol, Cortisol, Non-Gonadal Steroid Metabolism, plasma) was 2/2 Increased, the “Suramin Treatment Effect (KO-Sur/KO-Sal)” value (Eicosanoid and Resolvin Metabolism, plasma) was 4/6 Increased and the “Suramin Treatment Effect (KO-Sur/KO-Sal)” value (Fatty Acid Oxidation and Synthesis, plasma) was 9/9 Decreased. For the same molecule, the “Suramin Treatment Effect (KO-Sur/KO-Sal)” value (Ganglioside Metabolism, plasma) was 6/6 Increased, the “Suramin Treatment Effect (KO-Sur/KO-Sal)” value (Glycolysis and Gluconeogenesis, plasma) was 2/2 Decreased and the “Suramin Treatment Effect (KO-Sur/KO-Sal)” value (Isoleucine, Valine, Threonine, or Methionine Metabolism, plasma) was “Increased”. The “Suramin Treatment Effect (KO-Sur/KO-Sal)” value (Krebs Cycle, plasma) was “Increased”, the “Suramin Treatment Effect (KO-Sur/KO-Sal)” value (Microbiome Metabolism, plasma) was 2/3 Decreased and the “Suramin Treatment Effect (KO-Sur/KO-Sal)” value (Nitric Oxide, Superoxide, Peroxide Metabolism, plasma) was “Increased”. For the same molecule, the “Suramin Treatment Effect (KO-Sur/KO-Sal)” value (Pentose Phosphate, Gluconate Metabolism, plasma) was “Increased”, the “Suramin Treatment Effect (KO-Sur/KO-Sal)” value (Phospholipid Metabolism, plasma) was 6/6 Increased and the “Suramin Treatment Effect (KO-Sur/KO-Sal)” value (Purine Metabolism, plasma metabolites with VIP >=1.5, weekly suramin vs saline) was 4/5 Decreased. The “Suramin Treatment Effect (KO-Sur/KO-Sal)” value (Pyrimidine Metabolism, plasma) was “Decreased”, the “Suramin Treatment Effect (KO-Sur/KO-Sal)” value (SAM, SAH, Methionine, Cysteine, Glutathione Metabolism, plasma) was 3/3 Increased and the “Suramin Treatment Effect (KO-Sur/KO-Sal)” value (Sphingolipid Metabolism, plasma) was 3/5 Decreased. The “Suramin Treatment Effect (KO-Sur/KO-Sal)” value (Vitamin B3 (Niacin, NAD+) Metabolism, plasma) was 1/2 Increased, the “Suramin Treatment Effect (KO-Sur/KO-Sal)” value (Vitamin B6 (Pyridoxine) Metabolism, plasma) was “Increased” and the “Suramin Treatment Effect (KO-Sur/KO-Sal)” value (all 20 of 60 Pathways Dysregulated, top 58 metabolites, plasma) was 33/58 Increased. The “acyl-carnitine species with generalized decrease” value (plasma, Fmr1 KO mice, suramin treatment) was 9 of 9 and the “biochemical pathways with pharmacometabolomic changes” value (plasma, Fmr1 KO mice, weekly suramin) was 20 of 60.
